Results on 21 compounds are retold here after patent publication US20190284136A1, “INDOLINE DERIVATIVES” (ViiV HEALTHCARE UK LIMITED, priority 2016, published 2019).

The first experiment concerns HIV. Description: Table 1 IC50 of the examples (assay method not given; patent concerns inhibiting HIV replication). It counts as cell-based.
Conditions: not given
The term IC50 denotes the concentration that inhibits the measured activity by half. As to `COc1c(F)cccc1C(=O)N1CCc2c1cc(C)c([C@H](OC(C)(C)C)C(=O)O)c2-c1cc(F)c2c(c1C)CCCO2` (atropisomer, axis not shown; (P)) [Example 23, (S)-2-(tert-Butoxy)-2-((P)-1-(3-fluoro-2-methoxybenzoyl)-4-(8-fluoro-5-methylchroman-6-yl)-6-methylindolin-5-yl)acetic acid], the IC50 was found to be 95 nM.

Staying with this experiment, now noted: Human immunodeficiency virus 1.
`COc1ccc(C(=O)N2CCc3c2cc(C)c([C@H](OC(C)(C)C)C(=O)O)c3-c2cc(C(F)(F)F)c3c(c2C)CCCO3)cc1C` (atropisomer, axis not shown) [Example 196, (S)-2-(tert-Butoxy)-2-((R)-1-(4-methoxy-3-methylbenzoyl)-6-methyl-4-(5-methyl-8-(trifluoromethyl)chroman-6-yl)indolin-5-yl)acetic acid] displayed an IC50 of 359 nM. Take `Cc1ccc(C(=O)N2CCc3c2cc(C)c([C@H](OC(C)(C)C)C(=O)O)c3-c2cc(C(F)(F)F)c3c(c2C)CCCO3)cn1` (atropisomer, axis not shown) [Example 197, (S)-2-(tert-Butoxy)-2-((R)-6-methyl-4-(5-methyl-8-(trifluoromethyl)chroman-6-yl)-1-(6-methylnicotinoyl)indolin-5-yl)acetic acid]: the midpoint of inhibition, the IC50, lay at 712 nM. On the same count and under the same terms, next, `Cc1cc2c(ccn2Cc2ccc(F)c(F)c2)c(-c2cc(F)c3c(c2C)CCCO3)c1[C@H](OC(C)(C)C)C(=O)O` (atropisomer, axis not shown) [Example 198, (S)-2-(tert-Butoxy)-2-((R)-1-(3,4-difluorobenzyl)-4-(8-fluoro-5-methylchroman-6-yl)-6-methyl-1H-indol-5-yl)acetic acid]: 150 nM. The same measure, in the same setting: under `Cc1cc(F)ccc1Cn1ccc2c(-c3cc(F)c4c(c3C)CCCO4)c([C@H](OC(C)(C)C)C(=O)O)c(C)cc21` (atropisomer, axis not shown) [Example 199, (S)-2-(tert-Butoxy)-2-((R)-1-(4-fluoro-2-methylbenzyl)-4-(8-fluoro-5-methylchroman-6-yl)-6-methyl-1H-indol-5-yl)acetic acid] stands 42 nM. Still for that read-out and setting: under `COc1c(F)cccc1Cn1ccc2c(-c3cc(F)c4c(c3C)CCCO4)c([C@H](OC(C)(C)C)C(=O)O)c(C)cc21` (atropisomer, axis not shown) [Example 200, (S)-2-(tert-Butoxy)-2-((R)-1-(3-Fluoro-2-methoxybenzyl)-4-(8-fluoro-5-methylchroman-6-yl)-6-methyl-1H-indol-5-yl)acetic acid] stands 34 nM. The compound `Cc1cc2c(ccn2Cc2ccccn2)c(-c2cc(F)c3c(c2C)CCCO3)c1[C@H](OC(C)(C)C)C(=O)O` (atropisomer, axis not shown) [Example 201, (S)-2-(tert-Butoxy)-2-((R)-4-(8-Fluoro-5-methylchroman-6-yl)-6-methyl-1-(pyridin-2-ylmethyl)-1H-indol-5-yl)acetic acid] had a half-inhibitory concentration (IC50) of 80 nM. On the same count and under the same terms, next, `Cc1cc2c(ccn2C(=O)c2ccc(F)c(F)c2)c(-c2cc(F)c3c(c2C)CCCO3)c1[C@H](OC(C)(C)C)C(=O)O` (atropisomer, axis not shown) [Example 203, (S)-2-(tert-Butoxy)-2-((R)-1-(3,4-difluorobenzoyl)-4-(8-fluoro-5-methylchroman-6-yl)-6-methyl-1H-indol-5-yl)acetic acid]: 16 nM; `Cc1ccc(C(=O)N2c3cc(C)c([C@H](OC(C)(C)C)C(=O)O)c(-c4cc(F)c5c(c4C)CCCO5)c3CC2(C)C)cn1` (atropisomer, axis not shown) [Example 204, (S)-2-(tert-Butoxy)-2-((R)-4-(8-Fluoro-5-methylchroman-6-yl)-2,2,6-trimethyl-1-(6-methylnicotinoyl)indolin-5-yl)acetic acid]: 19 nM. Still for that read-out and setting: under `COc1ccc(C)cc1C(=O)N1c2cc(C)c([C@H](OC(C)(C)C)C(=O)O)c(-c3cc(F)c4c(c3C)CCCO4)c2CC1(C)C` (atropisomer, axis not shown) [Example 205, (S)-2-(tert-Butoxy)-2-((R)-4-(8-Fluoro-5-methylchroman-6-yl)-1-(2-methoxy-5-methylbenzoyl)-2,2,6-trimethylindolin-5-yl)acetic acid] stands 20 nM; under `COc1ccc(C(=O)N2c3cc(C)c([C@H](OC(C)(C)C)C(=O)O)c(-c4cc(F)c5c(c4C)CCCO5)c3CC2(C)C)cc1C` (atropisomer, axis not shown) [Example 206, (S)-2-(tert-Butoxy)-2-((R)-4-(8-fluoro-5-methylchroman-6-yl)-1-(4-methoxy-3-methylbenzoyl)-2,2,6-trimethylindolin-5-yl)acetic acid], 13 nM. Still for that read-out and setting: under `Cc1ccc(-c2c3c(cc(C)c2C(OC(C)(C)C)C(=O)O)N(Cc2ccc(F)c(F)c2)CC3)cc1` (stereo not drawn) [Example 1] stands 517 nM; under `Cc1cc2c(c(-c3cc(F)c4c(c3C)CCCO4)c1C(OC(C)(C)C)C(=O)O)CCN2Cc1ccc(F)c(F)c1` (stereo not drawn) [Example 2, 2-(tert-Butoxy)-2-(1-(3,4-difluorobenzyl)-4-(8-fluoro-5-methylchroman-6-yl)-6-methylindolin-5-yl)acetic acid], 330 nM; under `Cc1ccc(-c2c3c(cc(C)c2C(OC(C)(C)C)C(=O)O)N(C(=O)c2ccc(F)c(F)c2)CC3)cc1` (stereo not drawn) [Example 3, 2-(tert-Butoxy)-2-(1-(3,4-difluorobenzoyl)-6-methyl-4-(p-tolyl)indolin-5-yl)acetic acid], 12 nM.

Regarding `Cc1ccc(-c2c3c(cc(C)c2C(OC(C)(C)C)C(=O)O)N(C2CCCCC2)CC3)cc1` (stereo not drawn) [Example 4, 2-(tert-Butoxy)-2-(1-cyclohexyl-6-methyl-4-(p-tolyl)indolin-5-yl)acetic acid], the half-inhibitory concentration (IC50) was found to be 7520 nM. Same read-out and setting: under `Cc1ccc(-c2c3c(cc(C)c2C(OC(C)(C)C)C(=O)O)N(C(=O)C(=O)N2CCCCC2)CC3)cc1` (stereo not drawn) [Example 5, 2-(tert-Butoxy)-2-(6-methyl-1-(2-oxo-2-(piperidin-1-yl)acetyl)-4-(p-tolyl)indolin-5-yl)acetic acid] stands 343 nM; under `Cc1ccc(-c2c3c(cc(C)c2C(OC(C)(C)C)C(=O)O)N(C(=O)N2CCCCC2)CC3)cc1` (stereo not drawn) [Example 6, 2-(tert-Butoxy)-2-(6-methyl-1-(piperidine-1-carbonyl)-4-(p-tolyl)indolin-5-yl)acetic acid], 369 nM. The same measure, in the same setting: next, `Cc1ccc(-c2c3c(cc(C)c2C(OC(C)(C)C)C(=O)O)N(C(=O)Nc2ccc(F)cc2)CC3)cc1` (stereo not drawn) [Example 7, 2-(tert-Butoxy)-2-(1-((4-fluorophenyl)carbamoyl)-6-methyl-4-(p-tolyl)indolin-5-yl)acetic acid]: 3010 nM; `Cc1ccc(-c2c3c(cc(C)c2C(OC(C)(C)C)C(=O)O)N(C(=O)C2CCCCC2)CC3)cc1` (stereo not drawn) [Example 8, 2-(tert-Butoxy)-2-(1-(cyclohexanecarbonyl)-6-methyl-4-(p-tolyl)indolin-5-yl)acetic acid]: 15 nM.

Compound `Cc1ccc(-c2c3c(cc(C)c2[C@H](OC(C)(C)C)C(=O)O)N(C(=O)c2ccc(C)cc2C)CC3)cc1` [Example 9, (S)-2-(tert-Butoxy)-2-(1-(2,4-dimethylbenzoyl)-6-methyl-4-(p-tolyl)indolin-5-yl)acetic acid] came in with an IC50 of 11 nM. On the same count and under the same terms, under `COc1ccc(C(=O)N2CCc3c2cc(C)c([C@H](OC(C)(C)C)C(=O)O)c3-c2ccc(C)cc2)c(C)c1` [Example 10, (S)-2-(tert-Butoxy)-2-(1-(4-methoxy-2-methylbenzoyl)-6-methyl-4-(p-tolyl)indolin-5-yl)acetic acid] stands 12 nM.
